# Read-outs that look alike come from different tables or passages of the source.
# What was measured:
# C. albicans isolates = assay: Broth microdilution susceptibility (CLSI M27-A3) at different medium pH; format: cell-based, Candida albicans; settings: for MIC range / MIC50 / MIC90: 10 vaginal isolates; for MIC90: read-out: MIC90; for MIC: read-out: MIC (50% inhibition)
# Protocol: (§1) Ten strains each of C. glabrata and C. albicans vaginal isolates were tested. The strains were obtained from recent clinical trial patients with vulvovaginal candidiasis (VVC) prior to treatment. Candida strains were obtained from the Mycology Reference Library (MRL) at Case Western Reserve University School of Medicine, Ohio, United States.
# (§2) Susceptibility testing was performed using a broth microdilution method, according to CLSI M27-A3 guidelines (CLSI. 2008. Reference Method for Broth Dilution Antifungal Susceptibility Testing of Yeasts; Approved Standard—Third Edition. Clinical and Laboratory Standards Institute, CLSI document M27-A3). Antifungals and concentrations tested were SCY-078 and micafungin (both at concentrations within the range of 0.015 to 8 μg/ml) and fluconazole (at concentrations within the range of 0.125 to 64 μg/ml). A 0.1-ml C. albicans and C. glabrata inoculum of 0.5-2.5×10^3 blastospores/ml in RPMI 1640 medium was added to each microdilution well. ATCC strains of Candida parapsilosis and Candida krusei QC isolates were also included concurrently to ensure quality control. Antifungal susceptibility testing was carried out for each isolate in RPMI 1640 at pH 7 (to mimic RPMI medium used in testing the susceptibility of yeast by the CLSI M-27A3 document), pH 5.7, and pH 4.5 (to mimic the pH of the vaginal cavity) by adjusting the pH of the media using NaOH or HCl. […] Agents Chemother., 43: 1383-1386 (1999).
# (§3) […] SCY-078 powder was manufactured by Avista, Laboratories, NC. Micafungin and fluconazole were sourced from LGM Pharma.
# C. glabrata isolates = assay: as above; format: cell-based, Candida glabrata; settings: for MIC range: 50% inhibition; for MIC range / MIC50 / MIC90: 10 vaginal isolates; for MIC50 / MIC90 / MIC: Nakaseomyces glabratus, 24 h; for MIC50: read-out: MIC50; for MIC90: read-out: MIC90; for MIC: read-out: MIC (50% inhibition)
# Protocol: as §1, §2, §3
# [1] = pH 4.5, 50% inhibition, pH 4.5, 24 h
# [2] = pH 5.72, 50% inhibition, pH 5.72, 24 h
# [3] = pH 7, 50% inhibition, pH 7.0, 24 h
smiles,measurement,setting,value
"OC(Cn1cncn1)(Cn1cncn1)c1ccc(F)cc1F [Fluconazole, reference compound]",MIC range,"C. albicans isolates; 50% inhibition, pH 4.5, 24 h",0.25 to 8 µg/mL
same,MIC50,"C. albicans isolates; 50% inhibition, pH 5.72, 24 h",< 0.125 µg/mL
same,MIC range,"C. albicans isolates; 50% inhibition, pH 5.72, 24 h",<0.125 to 1 µg/mL
same,MIC range,"C. albicans isolates; 50% inhibition, pH 7.0, 24 h",<0.125 to 1 µg/mL
same,MIC50,"C. albicans isolates; Candida albicans, 24 h, pH 4.5, 50% inhibition, pH 4.5, 24 h, read-out: MIC50",0.25 µg/mL
same,MIC90,"C. albicans isolates; Candida albicans, 24 h, pH 4.5, 50% inhibition, pH 4.5, 24 h",1 µg/mL
same,MIC,"C. albicans isolates; Candida albicans, 24 h, pH 4.5, C. albicans MRL 34366, pH 4.5, 24 hours",0.25 µg/mL
same,MIC,"C. albicans isolates; Candida albicans, 24 h, pH 4.5, C. albicans MRL 34367, pH 4.5, 24 hours",1 µg/mL
same,MIC,"C. albicans isolates; Candida albicans, 24 h, pH 4.5, C. albicans MRL 34372, pH 4.5, 24 hours",0.25 µg/mL
same,MIC,"C. albicans isolates; Candida albicans, 24 h, pH 4.5, C. albicans MRL 34373, pH 4.5, 24 hours",0.5 µg/mL
same,MIC,"C. albicans isolates; Candida albicans, 24 h, pH 4.5, C. albicans MRL 34374, pH 4.5, 24 hours",0.25 µg/mL
same,MIC,"C. albicans isolates; Candida albicans, 24 h, pH 4.5, C. albicans MRL 34385, pH 4.5, 24 hours",0.25 µg/mL
same,MIC,"C. albicans isolates; Candida albicans, 24 h, pH 4.5, C. albicans MRL 34389, pH 4.5, 24 hours",0.5 µg/mL
same,MIC,"C. albicans isolates; Candida albicans, 24 h, pH 4.5, C. albicans MRL 34399, pH 4.5, 24 hours",8 µg/mL
same,MIC,"C. albicans isolates; Candida albicans, 24 h, pH 4.5, C. albicans MRL 34408, pH 4.5, 24 hours",0.25 µg/mL
same,MIC,"C. albicans isolates; Candida albicans, 24 h, pH 4.5, C. albicans MRL 34449, pH 4.5, 24 hours",0.5 µg/mL
same,MIC50,"C. albicans isolates; Candida albicans, 24 h, pH 5.72, 50% inhibition, pH 5.72, 24 h, read-out: MIC50",< 0.125 µg/mL
same,MIC90,"C. albicans isolates; Candida albicans, 24 h, pH 5.72, 50% inhibition, pH 5.72, 24 h",0.25 µg/mL
same,MIC,"C. albicans isolates; Candida albicans, 24 h, pH 5.72, C. albicans MRL 34366, pH 5.72, 24 hours",< 0.125 µg/mL
same,MIC,"C. albicans isolates; Candida albicans, 24 h, pH 5.72, C. albicans MRL 34367, pH 5.72, 24 hours",0.25 µg/mL
same,MIC,"C. albicans isolates; Candida albicans, 24 h, pH 5.72, C. albicans MRL 34372, pH 5.72, 24 hours",< 0.125 µg/mL
same,MIC,"C. albicans isolates; Candida albicans, 24 h, pH 5.72, C. albicans MRL 34373, pH 5.72, 24 hours",< 0.125 µg/mL
same,MIC,"C. albicans isolates; Candida albicans, 24 h, pH 5.72, C. albicans MRL 34374, pH 5.72, 24 hours",< 0.125 µg/mL
same,MIC,"C. albicans isolates; Candida albicans, 24 h, pH 5.72, C. albicans MRL 34385, pH 5.72, 24 hours",< 0.125 µg/mL
same,MIC,"C. albicans isolates; Candida albicans, 24 h, pH 5.72, C. albicans MRL 34389, pH 5.72, 24 hours",< 0.125 µg/mL
same,MIC,"C. albicans isolates; Candida albicans, 24 h, pH 5.72, C. albicans MRL 34399, pH 5.72, 24 hours",1 µg/mL
same,MIC,"C. albicans isolates; Candida albicans, 24 h, pH 5.72, C. albicans MRL 34408, pH 5.72, 24 hours",0.25 µg/mL
same,MIC,"C. albicans isolates; Candida albicans, 24 h, pH 5.72, C. albicans MRL 34449, pH 5.72, 24 hours",< 0.125 µg/mL
same,MIC50,"C. albicans isolates; Candida albicans, 24 h, pH 7, 50% inhibition, pH 7.0, 24 h, read-out: MIC50",0.25 µg/mL
same,MIC90,"C. albicans isolates; Candida albicans, 24 h, pH 7, 50% inhibition, pH 7.0, 24 h",0.25 µg/mL
same,MIC,"C. albicans isolates; Candida albicans, 24 h, pH 7, C. albicans MRL 34366, pH 7.0, 24 hours",< 0.125 µg/mL
same,MIC,"C. albicans isolates; Candida albicans, 24 h, pH 7, C. albicans MRL 34367, pH 7.0, 24 hours",0.25 µg/mL
same,MIC,"C. albicans isolates; Candida albicans, 24 h, pH 7, C. albicans MRL 34372, pH 7.0, 24 hours",< 0.125 µg/mL
same,MIC,"C. albicans isolates; Candida albicans, 24 h, pH 7, C. albicans MRL 34373, pH 7.0, 24 hours",0.25 µg/mL
same,MIC,"C. albicans isolates; Candida albicans, 24 h, pH 7, C. albicans MRL 34374, pH 7.0, 24 hours",0.25 µg/mL
same,MIC,"C. albicans isolates; Candida albicans, 24 h, pH 7, C. albicans MRL 34385, pH 7.0, 24 hours",< 0.125 µg/mL
same,MIC,"C. albicans isolates; Candida albicans, 24 h, pH 7, C. albicans MRL 34389, pH 7.0, 24 hours",< 0.125 µg/mL
same,MIC,"C. albicans isolates; Candida albicans, 24 h, pH 7, C. albicans MRL 34399, pH 7.0, 24 hours",1 µg/mL
same,MIC,"C. albicans isolates; Candida albicans, 24 h, pH 7, C. albicans MRL 34408, pH 7.0, 24 hours",0.25 µg/mL
same,MIC,"C. albicans isolates; Candida albicans, 24 h, pH 7, C. albicans MRL 34449, pH 7.0, 24 hours",0.25 µg/mL
same,MIC range,"C. glabrata isolates; pH 4.5, 24 h",1 to 16 µg/mL
same,MIC range,"C. glabrata isolates; pH 5.72, 24 h",2 to 16 µg/mL
same,MIC range,"C. glabrata isolates; pH 7.0, 24 h",0.5 to 2 µg/mL
same,"increase in MIC50, pH 7 compared to pH 4.5",C. glabrata isolates; C. glabrata isolates,8 fold
same,MIC50,C. glabrata isolates; [1],8 µg/mL
same,MIC90,C. glabrata isolates; [1],16 µg/mL
same,MIC,"C. glabrata isolates; pH 4.5, C. glabrata MRL 32075, pH 4.5, 24 hours",8 µg/mL
same,MIC,"C. glabrata isolates; pH 4.5, C. glabrata MRL 32232, pH 4.5, 24 hours",8 µg/mL
same,MIC,"C. glabrata isolates; pH 4.5, C. glabrata MRL 32626, pH 4.5, 24 hours",8 µg/mL
same,MIC,"C. glabrata isolates; pH 4.5, C. glabrata MRL 32993, pH 4.5, 24 hours",16 µg/mL
same,MIC,"C. glabrata isolates; pH 4.5, C. glabrata MRL 33204, pH 4.5, 24 hours",8 µg/mL
same,MIC,"C. glabrata isolates; pH 4.5, C. glabrata MRL 33960, pH 4.5, 24 hours",16 µg/mL
same,MIC,"C. glabrata isolates; pH 4.5, C. glabrata MRL 33961, pH 4.5, 24 hours",1 µg/mL
same,MIC,"C. glabrata isolates; pH 4.5, C. glabrata MRL 34339, pH 4.5, 24 hours",8 µg/mL
same,MIC,"C. glabrata isolates; pH 4.5, C. glabrata MRL 34407, pH 4.5, 24 hours",8 µg/mL
same,MIC,"C. glabrata isolates; pH 4.5, C. glabrata MRL 34576, pH 4.5, 24 hours",16 µg/mL
same,MIC50,C. glabrata isolates; [2],8 µg/mL
same,MIC90,C. glabrata isolates; [2],16 µg/mL
same,MIC,"C. glabrata isolates; pH 5.72, C. glabrata MRL 32075, pH 5.72, 24 hours",8 µg/mL
same,MIC,"C. glabrata isolates; pH 5.72, C. glabrata MRL 32232, pH 5.72, 24 hours",8 µg/mL
same,MIC,"C. glabrata isolates; pH 5.72, C. glabrata MRL 32626, pH 5.72, 24 hours",8 µg/mL
same,MIC,"C. glabrata isolates; pH 5.72, C. glabrata MRL 32993, pH 5.72, 24 hours",16 µg/mL
same,MIC,"C. glabrata isolates; pH 5.72, C. glabrata MRL 33204, pH 5.72, 24 hours",8 µg/mL
same,MIC,"C. glabrata isolates; pH 5.72, C. glabrata MRL 33960, pH 5.72, 24 hours",16 µg/mL
same,MIC,"C. glabrata isolates; pH 5.72, C. glabrata MRL 33961, pH 5.72, 24 hours",2 µg/mL
same,MIC,"C. glabrata isolates; pH 5.72, C. glabrata MRL 34339, pH 5.72, 24 hours",2 µg/mL
same,MIC,"C. glabrata isolates; pH 5.72, C. glabrata MRL 34407, pH 5.72, 24 hours",8 µg/mL
same,MIC,"C. glabrata isolates; pH 5.72, C. glabrata MRL 34576, pH 5.72, 24 hours",8 µg/mL
same,MIC50,C. glabrata isolates; [3],1 µg/mL
same,MIC90,C. glabrata isolates; [3],2 µg/mL
same,MIC,"C. glabrata isolates; pH 7, C. glabrata MRL 32075, pH 7.0, 24 hours",2 µg/mL
same,MIC,"C. glabrata isolates; pH 7, C. glabrata MRL 32232, pH 7.0, 24 hours",2 µg/mL
same,MIC,"C. glabrata isolates; pH 7, C. glabrata MRL 32626, pH 7.0, 24 hours",1 µg/mL
same,MIC,"C. glabrata isolates; pH 7, C. glabrata MRL 32993, pH 7.0, 24 hours",2 µg/mL
same,MIC,"C. glabrata isolates; pH 7, C. glabrata MRL 33204, pH 7.0, 24 hours",2 µg/mL
same,MIC,"C. glabrata isolates; pH 7, C. glabrata MRL 33960, pH 7.0, 24 hours",1 µg/mL
same,MIC,"C. glabrata isolates; pH 7, C. glabrata MRL 33961, pH 7.0, 24 hours",1 µg/mL
same,MIC,"C. glabrata isolates; pH 7, C. glabrata MRL 34339, pH 7.0, 24 hours",0.5 µg/mL
same,MIC,"C. glabrata isolates; pH 7, C. glabrata MRL 34407, pH 7.0, 24 hours",1 µg/mL
same,MIC,"C. glabrata isolates; pH 7, C. glabrata MRL 34576, pH 7.0, 24 hours",1 µg/mL

# — patent US20260000656A1, “ANTIFUNGAL AGENTS WITH ENHANCED ACTIVITY IN ACIDIC PH” (Scynexis, Inc., priority 2017, published 2026)
